# Assay results taken from patent US20150038545A1, “HYDROXYPHENYL PYRROLE COMPOUNDS CONTAINING AN HYDROXAMIC ACID AS HDAC INHIBITORS AND MEDICINAL APPLICATIONS THEREOF” (UNIVERSIDAD DEL PAÍS VASCO, priority 2011, published 2015).
# Key:
# Human HDAC3/NcoR2 = target: T1, Human HDAC3/NcoR2 (Homo sapiens, UniProt O15379); test: In vitro HDAC3 inhibition, fluorogenic peptide assay; assay type: biochemical; details: for IC50: read-out: IC50 (nM) of enzyme activity HDAC3
# T1 construct: Complex of human HDAC3, full length with C-terminal His tag, MW=49.7 kDa; His (C); purchased BioMol SE-507
# T1 sequence (O15379 whole entry): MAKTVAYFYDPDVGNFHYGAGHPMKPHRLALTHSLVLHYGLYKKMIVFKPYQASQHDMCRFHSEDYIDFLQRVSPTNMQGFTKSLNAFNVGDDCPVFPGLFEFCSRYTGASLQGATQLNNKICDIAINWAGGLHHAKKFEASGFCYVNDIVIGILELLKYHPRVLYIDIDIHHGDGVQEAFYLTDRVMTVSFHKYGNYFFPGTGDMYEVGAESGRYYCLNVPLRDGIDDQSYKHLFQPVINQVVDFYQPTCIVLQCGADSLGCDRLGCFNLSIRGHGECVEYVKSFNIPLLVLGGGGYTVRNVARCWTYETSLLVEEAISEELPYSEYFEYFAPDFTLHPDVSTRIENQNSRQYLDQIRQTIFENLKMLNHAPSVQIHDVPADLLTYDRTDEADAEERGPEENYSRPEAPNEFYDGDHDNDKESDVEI
# T1 sequence (Q9Y618 395-489 partner limits assumed): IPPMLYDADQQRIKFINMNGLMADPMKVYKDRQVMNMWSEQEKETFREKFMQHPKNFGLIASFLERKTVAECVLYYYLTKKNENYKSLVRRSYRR
# Experimental: (§1) All HDAC assays were performed using acetylated AMC-labeled peptide substrate: • Substrate for isoforms HDAC1, 2, 3, 4, 5, 6, 7, 9, 10, 11 and HeLa nuclear extract assays: Acetylated fluorogenic peptide from p53 residues 379-382 (RHKKAc) (BioMol. Cat. # KI-104). • Substrate for HDAC8 assays: Acetylated fluorogenic peptide from p53 residues 379-382 (RHKAcKAc) (BioMol. Cat. # KI-178).
# (§2) Enzymes: • HDAC1 assay: 75 nM Human HDAC1 (GenBank Accession No. NM_004964): Full length with C-terminal GST tag, MW=79.9 kDa, expressed by baculovirus expression system in Sf9 cells (BioMol. Cat. # SE-456). • HDAC2 assay: 5 nM Human HDAC2 (GenBank Accession No. Q92769): Full length with C-terminal His tag, MW=60 kDa, expressed by baculovirus expression system in Sf9 cells (BioMol. Cat. # SE-500). • HDAC3 assay: 2.3 nM Human HDAC3/NcoR2 (GenBank Accession No. NM_003883 for HDAC3, GenBank Accession No.NM_006312 for NcoR2): Complex of human HDAC3, full length with C-terminal His tag, MW=49.7 kDa, and human NCOR2, N-terminal GST tag, MW=39 kDa, co-expressed in baculovirus expression system (BioMol. Cat. # SE-507). • HDAC4 assay: 266 nM Human HDAC4 (GenBank Accession No. NM_006037): Amino acids 627-1085 with N-terminal GST tag, MW=75.2 kDa, expressed in baculovirus expression system (BioMol, Hamburg, Germany). • HDAC5 assay: 588 nM Human HDAC5 (GenBank Accession No. NM_001015053): Full length with Nterminal GST tag, MW=150 kDa, expressed by baculovirus expression system in Sf9 cells (BioMol, Hamburg, Germany). • HDAC6 assay: 13 nM Human HDAC6 (GenBank Accession No. BC069243): Full length with N-terminal GST tag, MW=159 kDa, expressed by baculovirus expression system in Sf9 cells (BioMol. Cat. # SE-508). • HDAC7 assay: 962 nM Human HDAC7 (GenBank Accession No. AY302468): Amino acids 518-end with N-terminal GST tag, MW=78 kDa, expressed in baculovirus expression system (BioMol, Hamburg, Germany). • HDAC8 assay: 119 nM Human HDAC8 (GenBank Accession No. NM018486): Full length, MW=42 kDa, expressed in an E. coli expression system (BioMol. Cat. # SE-145). • HDAC9 assay: 986 nM Human HDAC9 (GenBank Accession No. NM178423): Amino acids 604-1066 with C-terminal His tag, MW=50.7 kDa, expressed in baculovirus expression system (BioMol, Hamburg, Germany). • HDAC10 assay: 781 nM Human HDAC10 (GenBank Accession No. NM_032019): Amino acids 1-631 with Nterminal GST tag, MW=96 kDa, expressed by baculovirus expression system in Sf9 cells (BioMol. Cat. # SE-559). • HDAC11 assay: 781 nM Human HDAC11 (GenBank Accession No. NM_BC009676) with N-terminal GST tag, MW=66 kDa, expressed in baculovirus expression system (BioMol. Cat. # SE-560). • HeLaNuclear Extract assay: 25 ng/μl Nuclear Extract from HeLa Cells: Prepared by high salt extraction of HeLa nuclei (human cervical cancer cell line), this extract is a rich source of HDAC activity (BioMol. Cat. # KI-140).
# (§3) The reactions were carried out in a 96-well microplate for fluorometry in a 50 μl reaction volume. After the deacetylation reaction, Fluor-de-Lys-Developer (BioMol Cat. # KI-105) was added to each well to digest the deacetylated substrate, thus producing the fluorescent signal. The reaction was allowed to develop for 45 minutes at 30° C. with 5% CO2; then the fluorescent signal was measured with an excitation wavelength at 360 nm and an emission wavelength at 460 nm in a microplate-reading fluorometer (GeminiXS; Molecular Devices, Sunnyvale, Calif.). […] All experiments were performed in triplicate. IC50 was calculated by fitting the experimental data to a dose-response curve. DMSO was used as negative control; Trichostatin A (Biomol Cat. # GR-309) was used as positive control inhibitor.
# [1] = tested on: T2, Nuclear Extract from HeLa Cells; test: HeLa nuclear extract HDAC inhibition assay; assay type: biochemical, Human; details: HeLa cell line nuclear extract
# T2 construct: 25 ng/μl Nuclear Extract from HeLa Cells: Prepared by high salt extraction of HeLa nuclei (human cervical cancer cell line)
# Experimental: as §1, §2, §3
# Human HDAC1 = target: T3, Human HDAC1 (Homo sapiens, UniProt Q13547); test: In vitro HDAC1 inhibition, fluorogenic peptide assay; assay type: biochemical; details: for IC50: read-out: IC50 (nM) of enzyme activity HDAC1
# T3 construct: Full length with C-terminal GST tag, MW=79.9 kDa; GST (C); purchased BioMol SE-456; host or cells: Sf9 cells, baculovirus
# T3 sequence (Q13547 whole entry): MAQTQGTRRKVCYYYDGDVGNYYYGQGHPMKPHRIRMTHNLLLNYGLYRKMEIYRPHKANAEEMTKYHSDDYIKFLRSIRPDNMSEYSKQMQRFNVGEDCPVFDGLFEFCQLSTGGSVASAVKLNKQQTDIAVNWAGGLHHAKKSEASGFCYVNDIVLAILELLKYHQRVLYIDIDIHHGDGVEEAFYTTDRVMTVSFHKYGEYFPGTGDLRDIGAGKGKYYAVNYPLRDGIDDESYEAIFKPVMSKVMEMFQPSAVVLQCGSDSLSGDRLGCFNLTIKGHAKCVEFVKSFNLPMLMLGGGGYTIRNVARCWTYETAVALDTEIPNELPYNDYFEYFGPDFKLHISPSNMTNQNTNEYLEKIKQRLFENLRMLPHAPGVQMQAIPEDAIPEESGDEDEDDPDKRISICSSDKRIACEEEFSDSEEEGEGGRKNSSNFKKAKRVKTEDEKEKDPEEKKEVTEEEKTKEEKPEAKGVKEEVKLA
# Experimental: as §1, §2, §3
# Human HDAC2 = target: T4, Human HDAC2 (Homo sapiens, UniProt Q92769); test: In vitro HDAC2 inhibition, fluorogenic peptide assay; assay type: biochemical; details: for IC50: read-out: IC50 (nM) of enzyme activity HDAC2
# T4 construct: Full length with C-terminal His tag, MW=60 kDa; His (C); purchased BioMol SE-500; host or cells: Sf9 cells, baculovirus
# T4 sequence (Q92769 whole entry): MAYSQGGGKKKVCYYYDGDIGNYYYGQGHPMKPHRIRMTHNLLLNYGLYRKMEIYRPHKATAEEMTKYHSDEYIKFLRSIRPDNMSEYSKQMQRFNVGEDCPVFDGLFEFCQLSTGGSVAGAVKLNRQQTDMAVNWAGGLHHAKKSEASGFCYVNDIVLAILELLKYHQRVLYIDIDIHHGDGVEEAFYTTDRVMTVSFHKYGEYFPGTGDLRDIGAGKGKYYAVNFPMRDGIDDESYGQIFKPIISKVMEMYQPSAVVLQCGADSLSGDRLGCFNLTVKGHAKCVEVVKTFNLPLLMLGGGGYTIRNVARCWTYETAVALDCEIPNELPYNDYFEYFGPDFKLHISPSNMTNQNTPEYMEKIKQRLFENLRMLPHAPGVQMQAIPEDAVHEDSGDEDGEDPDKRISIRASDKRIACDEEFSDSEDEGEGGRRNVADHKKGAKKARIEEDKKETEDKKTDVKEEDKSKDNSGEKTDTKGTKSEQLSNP
# Experimental: as §1, §2, §3
Selectivity against HDAC6 (IC50 HDACx/IC50 HDAC6) HDAC3 (Human HDAC3/NcoR2),IC50 (Human HDAC3/NcoR2) [nM],IC50 [1] [nM],Selectivity against HDAC6 (IC50 HDACx/IC50 HDAC6) HDAC1 (Human HDAC1),IC50 (Human HDAC1) [nM],Selectivity against HDAC6 (IC50 HDACx/IC50 HDAC6) HDAC2 (Human HDAC2),IC50 (Human HDAC2) [nM],Compound
28.6,572,61,23.2,464,64.7,1290,"COc1ccc(-c2cc(-c3ccccc3)[nH]c2C(=O)NCCCCCC(=O)NO)cc1 [Compound A, N-[6-(hydroxyamino)-6-oxohexyl]-3-(4-methoxyphenyl)-5-phenyl-1H-pyrrole-2-carboxamide, reference compound]"
13.0,415,27,8.6,276,28.7,918,"COc1ccc(-c2cc(-c3ccccc3)c(C(=O)NCCCCCC(=O)NO)[nH]2)cc1 [Compound B, N-[6-(hydroxyamino)-6-oxohexyl]-5-(4-methoxyphenyl)-3-phenyl-1H-pyrrole-2-carboxamide, reference compound]"
31.2,437,31,25.3,354,81.1,1140,"O=C(CCCCCNC(=O)c1[nH]c(-c2ccccc2)cc1-c1ccc(O)cc1)NO [Example 1, N-(6-(hydroxyamino)-6-oxohexyl)-3-(4-hydroxyphenyl)-5-phenyl-1H-pyrrole-2-carboxamide]"
32.9,250,18,20.1,153,52.1,396,"O=C(CCCCCNC(=O)c1[nH]c(-c2ccc(O)cc2)cc1-c1ccccc1)NO [Example 2, N-(6-(hydroxyamino)-6-oxohexyl)-5-(4-hydroxyphenyl)-3-phenyl-1H-pyrrole-2-carboxamide]"
,441,46,,438,,1270,"O=C(CCCCCNC(=O)c1[nH]c(-c2ccsc2)cc1-c1ccc(O)cc1)NO [Example 3, N-(5-(hydroxycarbamoyl)pentyl)-3-(4-hydroxyphenyl)-5-(3-thienyl)-1H-pyrrole-2-carboxamide]"
,341,33,,353,,864,"O=C(CCCCCNC(=O)c1[nH]c(-c2ccoc2)cc1-c1ccc(O)cc1)NO [Example 4, 5-(3-furyl)-N-(5-(Hydroxycarbamoyl)pentyl)-3-(4-hydroxy-phenyl)-1H-pyrrole-2-carboxamide]"
,20,1.6,,19,,56,"O=C(CCCCCNC(=O)c1[nH]c(-c2ccc(O)cc2)cc1-c1ccoc1)NO [Example 5, 3-(3-furyl)-N-(5-(hydroxycarbamoyl)pentyl)-5-(4-hydroxy-phenyl)-1H-pyrrole-2-carboxamide]"
,71,7.3,,49,,203,"O=C(CCCCCNC(=O)c1[nH]c(-c2ccc(O)cc2)cc1-c1ccsc1)NO [Example 6, N-(5-(hydroxycarbamoyl)pentyl)-5-(4-hydroxyphenyl)-3-(3-thienyl)-1H-pyrrole-2-carboxamide]"
